According to PubChem BioAssay (NCI):
“And” between values parts separate entries of the source, which are not always exact repeats. Equal entries are not always repeated.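 Test compounds were applied to cells in 96-well plates for 48 hours at 5 doses. GI50 is the concentration that inhibits growth by half. TGI: concentration producing complete growth inhibition.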

What was measured:
Assay in all cases: NCI tumour cell line growth inhibition, 48 h
SF-268 CNS = test system: SF-268 CNS
NCI-H23 lung = test system: NCI-H23 lung
RXF 393 renal = test system: RXF 393 renal
NCI-H460 lung = test system: NCI-H460 lung
OVCAR-4 ovarian = test system: OVCAR-4 ovarian
OVCAR-3 ovarian = test system: OVCAR-3 ovarian
MCF7 breast = test system: MCF7 breast
MDA-MB-231 breast = test system: MDA-MB-231 breast
HOP-62 NSCLC = test system: HOP-62 NSCLC
SK-MEL-2 melanoma = test system: SK-MEL-2 melanoma

Compound | GI50 (SF-268 CNS) | TGI (SF-268 CNS) | GI50 (NCI-H23 lung) | TGI (NCI-H23 lung) | GI50 (RXF 393 renal) | TGI (RXF 393 renal) | GI50 (NCI-H460 lung) | TGI (NCI-H460 lung) | GI50 (OVCAR-4 ovarian) | TGI (OVCAR-4 ovarian) | GI50 (OVCAR-3 ovarian) | TGI (OVCAR-3 ovarian) | GI50 (MCF7 breast) | TGI (MCF7 breast) | GI50 (MDA-MB-231 breast) | TGI (MDA-MB-231 breast) | GI50 (HOP-62 NSCLC) | TGI (HOP-62 NSCLC) | GI50 (SK-MEL-2 melanoma) | TGI (SK-MEL-2 melanoma)
Nc1nc(SCc2ccccc2CCl)c2[nH]cnc2n1 | 12.6 µM | 25.6 µM | 15.7 µM | 36.5 µM | 14 µM | 28.7 µM | 15.2 µM | 30.9 µM | 13.2 µM | 37.3 µM | 14.6 µM | 28.9 µM | 12.2 µM | 28.4 µM | 14.2 µM | 38 µM | 17 µM | 33.2 µM |  | 
COC(=O)c1c(C(=O)OC)c(-c2ccccc2)n(-c2ccccc2)c(=O)c1-c1ccccc1 |  | > 100 µM |  | > 100 µM |  | 60.8 µM |  | > 100 µM |  | 78.1 µM |  | > 100 µM |  |  |  |  |  | > 100 µM |  | 
Cc1ccc(NCCNCC(C)(C)O)c2c(=O)c3ccc(Cl)cc3sc12 | 1.52 µM | 3.22 µM | 1.53 µM | 3.03 µM | 1.26 µM | 2.61 µM | 1.22 µM | 2.6 µM |  |  | 1.66 µM | 3.13 µM | 1.44 µM | 2.97 µM | 1.16 µM | 2.57 µM |  |  | 1.59 µM | 3.28 µM
COc1ccc(/C=C/C(=O)c2c(-c3ccccc3)nn(C)c(=O)c2N2CC2C)cc1 (stereo not given) |  | > 100 µM |  | 50.7 µM |  | 93.6 µM |  | 65.5 µM |  | 84 µM |  | 67.7 µM |  |  |  |  |  | > 100 µM |  | 47.6 µM
O=C(/C=C/c1ccc(O)c(O)c1)N1CCN(c2ccc(Cl)cc2)CC1 | 4.92 µM | 42.6 µM | 5.21 µM | 32 µM |  |  | 4.79 µM | 21.5 µM | 3.48 µM | 39.5 µM |  |  | 6.08 µM | 25 µM | 5.28 µM | 35.6 µM | 7.77 µM | 35.1 µM | 12.1 µM | 31.9 µM
N#C/C(=C\c1ccc(O)cc1)C(N)=O |  | > 100 µM |  | > 100 µM |  | > 100 µM |  | > 100 µM |  | > 100 µM |  | > 100 µM |  | > 100 µM |  |  |  | > 100 µM |  | > 100 µM
Cc1cc(NCCCCCCCNc2cc(C)nc3cc(N)ccc23)c2ccc(N)cc2n1 |  | > 100 µM |  | > 100 µM |  | > 100 µM |  | > 100 µM |  | > 100 µM |  | > 100 µM |  |  |  |  |  | > 100 µM |  | > 100 µM
O=C(N/C(=C\c1ccc([N+](=O)[O-])cc1)c1nc2ccccc2s1)c1ccccc1 |  | 56.2 µM |  | 61.7 µM |  | 78.4 µM |  |  |  | 81.3 µM |  | > 100 µM |  |  |  |  |  | > 100 µM |  | 80.5 µM
O=P(CN1CCOCC1)(c1ccccc1)c1ccccc1 |  | > 100 µM |  | > 100 µM |  | > 100 µM |  | > 100 µM |  | > 100 µM |  | > 100 µM |  |  |  |  |  | > 100 µM |  | > 100 µM
CCN(CC)CCOC(COc1cc(C)cc(C)c1)COc1cc(C)cc(C)c1 | 4.26 µM | 17.6 µM | 2.36 µM | 14.7 µM | 2.06 µM | 5.07 µM |  |  | 2.33 µM | 13.7 µM | 3.46 µM | 13 µM | 2.17 µM | 5.33 µM |  |  | 2.72 µM | 18.5 µM | 11.6 µM | 25.8 µM
CCCN1C(=O)/C(=C/c2ccc(SC(F)(F)F)cc2)SC1=Nc1ccc(OC)cc1 | 11.3 µM | 43.9 µM | 12.6 µM | 30.2 µM | 5.35 µM | 16.9 µM | 12.1 µM | > 50 µM |  |  | 13.5 µM | 31.1 µM | 15.6 µM | > 50 µM | 5.93 µM | 19.5 µM | 16.5 µM | > 50 µM | 36.5 µM | > 50 µM
CC1[C@@]2(CCC(C)(C)O2)O[C@@H]2C=C3C4CCC5Cc6nc7c(nc6C[C@@]5(C)C4C[C@H](O)[C@@]3(C)[C@]12O)CC1CCC2C3=C[C@H]4O[C@@]5(O[C@@](C)(CO)C[C@@H]5O)C(C)[C@@]4(O)[C@]3(C)[C@@H](O)CC2[C@]1(C)C7 (stereo not given in full) | 0.00464 µM | 0.904 µM and 0.125 µM | 0.00308 µM |  | < 0.000365 µM |  | 0.00135 µM | 0.365 µM and 0.0392 µM | 0.0921 µM | 0.81 µM | 0.435 µM | 1.11 µM |  | 0.524 µM |  |  | 0.000389 µM |  | 0.00444 µM | 
COc1cc(C(=O)c2cnc(-c3c[nH]c4cccc(C)c34)[nH]2)cc(OC)c1OC | 0.00862 µM | > 100 µM | 0.0102 µM | > 100 µM |  |  | 0.00618 µM | 35.4 µM | 0.529 µM | > 100 µM | 0.00332 µM | 0.0125 µM | 0.00344 µM | > 100 µM | 0.0204 µM |  | 0.00809 µM | 55.9 µM | 0.00745 µM | 30.7 µM
COC1C(OC(=O)c2ccc(C)[nH]2)C(O)C(Oc2ccc3c(O)c(NC(=O)c4ccc(O)c(CC=C(C)C)c4)c(=O)oc3c2Cl)OC1(C)C (stereo not given) |  | 57.4 µM |  | 45.5 µM |  |  |  | 69.5 µM |  | 99.6 µM |  | 43.6 µM |  | 54.2 µM |  | 49.4 µM |  | 33.4 µM |  | 27 µM
COC(=O)CC1(O)C(=O)OCc2c1cc1n(c2=O)Cc2c-1nc1ccccc1c2OC (stereo not given) |  | > 34 µM |  | 1.68 µM |  | 8.42 µM |  |  |  | > 36.1 µM |  | > 57.4 µM |  |  |  |  |  | 0.358 µM |  | 74.6 µM
CCOc1ccc(NC(=O)CC2SC(=Nc3ccc(C)cc3)NC2=O)cc1 (stereo not given) |  | > 100 µM |  | > 100 µM |  | > 100 µM |  | > 100 µM |  | > 100 µM |  | > 100 µM |  |  |  |  |  | > 100 µM |  | 
O=S(=O)(c1ccccc1)N1CCCC(c2ccccc2)CC1 (stereo not given) |  | > 100 µM |  | > 100 µM |  | > 100 µM |  | > 100 µM |  | > 100 µM |  | > 100 µM |  | 53.7 µM |  | > 100 µM |  |  |  | > 100 µM
Cc1nc2c(C)ccc([N+](=O)[O-])c2c(NCCCN(C)C)c1C |  | > 100 µM |  | > 100 µM |  | > 100 µM |  | > 100 µM |  | > 100 µM |  | > 100 µM |  | > 100 µM |  |  |  | > 66.6 µM |  | > 70.6 µM
CC1NOC(=O)C1N=Nc1cccc(Cl)c1 (stereo not given) |  | 89.9 µM |  | > 100 µM |  | 64.1 µM |  | > 100 µM |  | > 100 µM |  | 60.4 µM |  |  |  |  |  | > 100 µM |  | 47.4 µM
